# Assay results published in ChEMBL document CHEMBL1132862, “Structure-activity and crystallographic analysis of a new class of non-amide-based thrombin inhibitor” (Bioorg Med Chem Lett, 2000).
# Target: Prothrombin (Homo sapiens, UniProt P00734)
# Assay: Anti- Thrombin activity using standard chromogenic assay
row,Ki [nM],SMILES
1,115,Cc1cc(OCC2CC[N+](=C([NH-])N)CC2)cc(OS(=O)(=O)c2cccc([N+](=O)[O-])c2)c1 (stereo not given)
2,3700,COC(=O)c1cc(OCC2CCN(C(=N)N)CC2)cc(OS(=O)(=O)c2ccccc2Cl)c1
3,22,Cc1cc(OCC2CCN(C(=N)N)CC2)cc(OS(=O)(=O)c2cccc(Cl)c2Cl)c1
4,399,Cc1cc(OCC2CCN(C(=N)N)CC2)cc(OS(=O)(=O)c2ccc(N)cc2)c1
5,32,Cc1cc(OCC2CCN(C(=N)N)CC2)cc(OS(=O)(=O)c2cccc(N)c2)c1
6,490,N=C(N)N1CCC(COc2cc(CO)cc(OS(=O)(=O)c3ccccc3Cl)c2)CC1
7,35,Cc1cc(OCC2CCN(C(=N)N)CC2)cc(OS(=O)(=O)c2cccc3ccccc23)c1
8,327,Cc1cc(OCC2CC[N+](=C([NH-])N)CC2)cc(OS(=O)(=O)c2ccc([N+](=O)[O-])cc2)c1 (stereo not given)
9,44,COc1cc(OCC2CCN(C(=N)N)CC2)cc(OS(=O)(=O)c2ccccc2Cl)c1
10,28,COC(=O)c1ccccc1S(=O)(=O)Oc1cc(C)cc(OCC2CCN(C(=N)N)CC2)c1
11,16,Cc1cc(OCC2CC[N+](=C([NH-])N)CC2)cc(OS(=O)(=O)c2ccccc2[N+](=O)[O-])c1 (stereo not given)
12,52,Cc1cc(OCC2CCN(C(=N)N)CC2)cc(OS(=O)(=O)c2ccccc2N)c1
13,190,N=C(N)N1CCC(COc2cccc(OS(=O)(=O)c3ccccc3Cl)c2)CC1
14,39,Cc1cc(OCC2CCN(C(=N)N)CC2)cc(OS(=O)(=O)c2cccc(Cl)c2)c1
15,39,CCc1cc(OCC2CCN(C(=N)N)CC2)cc(OS(=O)(=O)c2ccccc2Cl)c1
16,32,Cc1cc(OCC2CCN(C(=N)N)CC2)cc(OS(=O)(=O)c2ccccc2)c1
17,36,Cc1cc(OCC2CCN(C(=N)N)CC2)cc(OS(=O)(=O)c2cccc(C)c2)c1
18,14,Cc1cc(OCC2CCN(C(=N)N)CC2)cc(OS(=O)(=O)c2ccccc2C(F)(F)F)c1
19,445,Cc1cc(OCC2CCN(C(=N)N)CC2)cc(OS(=O)(=O)c2cccc(C(F)(F)F)c2)c1
20,30,N=C(N)N1CCC(COc2cc(Cl)cc(OS(=O)(=O)c3ccccc3Cl)c2)CC1
